Molecules are shown by their SMILES. Activity calls are given as the source filed them. The rule behind the calls is not given here. Some results are limits rather than exact numbers.

The source of these data is ChEMBL document CHEMBL2157913, “Synthesis and evaluation of apoptosis induction of thienopyrimidine compounds on KRAS and BRAF mutated colorectal cancer cell lines” (Bioorg Med Chem, 2012).

The subject of one experiment is HCT-116. The experiment in a line: Induction of apoptosis in human HCT116 cells expressing KRAS mutant assessed as depolarization of mitochondrial membrane after 24 hrs by flow cytometry. Format: functional, cell-based.
Experiment [1] deals with HT-29. The experiment in a line: Induction of apoptosis in human HT-29 cells expressing BRAF mutant assessed as activation of caspase-3 at 200 uM after 10 mins by flow cytometry relative to control. Format: functional. For orientation: A flow cytometer gives signals particle by particle.
The next experiment concerns HeLa. The experiment in a line: Induction of apoptosis in human HeLa cells expressing wild type KRAS and BRAF assessed as depolarization of mitochondrial membrane after 24 hrs by flow cytometry. Format: functional, cell-based.
The test system of experiment [2] is HT-29. Briefly: Induction of apoptosis in human HT-29 cells expressing BRAF mutant assessed as depolarization of mitochondrial membrane after 24 hrs by flow cytometry. Format: functional, cell-based.
For experiment [3], the system named is HT-29. Briefly: Induction of apoptosis in human HT-29 cells expressing BRAF mutant assessed as cell death at 200 uM after 10 mins by flow cytometry. Format: functional, cell-based.
Setting [4] is: Homo sapiens, HeLa, 24 h, read-out: IC50.
Where [5] appears, read: Homo sapiens, HCT-116, 24 h, read-out: IC50.
[6] abbreviates: Homo sapiens, HT-29, 24 h, read-out: IC50.

As for `COc1ccccc1Nc1ncnc2sc3ccccc3c12`, the IC50 entry in the experiment with HCT-116 (hct-116) was “Not Active”; in the experiment with HeLa (setting [4]), greater than 130 µM; with HT-29 [2] (ht-29), “Not Active”. Moreover, in the experiment on HT-29 [1], the outcome was Active.
Turning to `c1ccc(CNc2ncnc3c2sc2ccccc23)cc1`, the IC50 entry in the experiment with HCT-116 (hct-116) is “Not Active”; with HeLa (setting [4]), 105 µM; in the experiment with HT-29 [2] (ht-29), “Not Active”.
In the case of `CN(C)c1ncnc2sc3ccccc3c12`, the IC50 result in the experiment on HCT-116 (hct-116) was “Not Active”; in the experiment with HeLa (setting [4]), 102 µM; with HT-29 [2] (ht-29), “Not Active”.
In the case of `Cc1ccccc1CNc1ncnc2c1sc1ccccc12`, the IC50 entry with HCT-116 (hct-116), with HeLa (hela) and in the experiment with HT-29 [2] (ht-29) was “Not Active” throughout.
Turning to `c1ccc(CNc2ncnc3sc4ccccc4c23)cc1`, the results for the IC50 with HCT-116 (setting [5]), with HeLa (setting [4]) and in the experiment with HT-29 [2] (setting [6]) were greater than 130 µM, 113 µM and 126 µM, respectively.
`Cc1ccccc1Nc1ncnc2sc3ccccc3c12`: the outcome in the experiment with HT-29 [3] was Active. Also, the IC50 in the experiment on HCT-116 (setting [5]) turned out to be 101 µM; in the experiment on HeLa (setting [4]), 129 µM; in the experiment with HT-29 [2] (setting [6]), 120 µM. Moreover, the “fold change (FC)” value in the experiment on HT-29 [1] stood at 10.
Take `c1ccc(Nc2ncnc3sc4ccccc4c23)cc1`: the 50% inhibitory concentration (IC50) result was “Not Active” with HCT-116 (hct-116), greater than 130 µM with HeLa (setting [4]) and “Not Active” with HT-29 [2] (ht-29). Also, the result in the experiment with HT-29 [1] was Active.
Regarding `COc1ccccc1CNc1ncnc2c1sc1ccccc12`, the IC50 entry in the experiment on HCT-116 (hct-116) was “Not Active”; with HeLa (setting [4]), 129 µM; in the experiment on HT-29 [2] (ht-29) it was “Not Active”.
`Cc1ccccc1Nc1ncnc2c1sc1ccccc12`: the figures for the IC50 in the experiment with HCT-116 (setting [5]), in the experiment with HeLa (setting [4]) and with HT-29 [2] (setting [6]) were 121 µM, 77.7 µM and 127 µM, respectively.
Take `COc1ccc(CNc2ncnc3c2sc2ccccc23)cc1`: the IC50 entry in the experiment on HCT-116 (hct-116) is “Not Active”; with HeLa (setting [4]), 118 µM; with HT-29 [2] (ht-29), “Not Active”.
For `Cc1ccccc1CNc1ncnc2sc3ccccc3c12`, the 50% inhibitory concentration (IC50) result in the experiment with HCT-116 (hct-116) is “Not Active”; in the experiment with HeLa (setting [4]), greater than 130 µM; in the experiment with HT-29 [2] (ht-29), “Not Active”.
For `COc1ccc(Nc2ncnc3sc4ccccc4c23)cc1`, the outcome with HT-29 [3] was Active. Besides, the IC50 in the experiment with HCT-116 (setting [5]) worked out at 92 µM; with HeLa (setting [4]), 109 µM; in the experiment with HT-29 [2] (setting [6]), 117 µM. Moreover, in the experiment with HT-29 [1], the “fold change (FC)” value is recorded as 10.
With `c1ccc(Nc2ncnc3c2sc2ccccc23)cc1`, the IC50 entry in the experiment with HCT-116 (hct-116), with HeLa (hela) and in the experiment on HT-29 [2] (ht-29) was “Not Active” in each case.

What is called IC50 is the concentration that gives 50% inhibition.
